Test results reported in patent publication US20190142971A1, “FORMULATION AND DELIVERY OF MODIFIED NUCLEOSIDE, NUCLEOTIDE, AND NUCLEIC ACID COMPOSITIONS” (ModernaTX, Inc., priority 2013, published 2019).

Experiments:
Sprague-Dawley rats = assay: Example 71: toxicity study of luciferase mRNA in rats: weight, electrolytes, hematology, WBC, serum chemistry, liver proteins (Tables 104-110); assay type: in vivo; conditions: for Mean weight Gain / Weight Gain: 7 days after administration; for ALP / ALT / AST / Albumin / Basophils (BASO %) / Bicarbonate / CPK / Calcium / Chloride / Eosinophils (EOS %) / Globulin / HCT / HGB / Lymphocytes (LYM %) / MCH / MCV / Monocytes (MON %) / Neutrophil (NEU-SEG %) / Phosphorus / Potassium / RBC / Sodium / Total Protein / WBC / MCHC: after 7 days
Procedure: A control group were administered the formulation buffer (F. Buffer). After 7 days the rats were sacrificed.
The rats were weighed before the administration of mRNA and 7 days after administration. […] Each group analyzed consumed about the same amount of food over the course of the study.
After 7 days the rats were sacrificed and samples were taken to determine electrolytes. The calcium, bicarbonate, potassium, phosphorus, chloride and sodium levels in each group were analyzed.
After 7 days the rats were sacrificed and samples were taken to determine hematology levels. The red blood cell (RBC), hematocrit (HGT), mean corpuscular volume (MCV), hemoglobin (HGB), mean corpuscular hemoglobin (MCH) and mean corpuscular hemoglobin concentration (MCHC) was determined for each group.
After 7 days the rats were sacrificed and samples were taken to determine white blood cell count. Neutrophils (percent segmented neutrophils), monocytes, basophils, lymphocytes, eosinophil and white blood cell (WBC) was determined for each group.
After 7 days the rats were sacrificed and samples were taken to determine serum chemistry. The alkaline phosphatase (ALP), aspartate transaminase (AST), alanine transaminase (ALT) and creatine phosphokinase (CPK) was determined for each group.
After 7 days the rats were sacrificed and samples were taken to determine liver protein levels. The level of albumin, globulin and total protein was determined for each group.
Doses as high as 30 times the effective dose appear to be safe from this analysis.

C57BL/6 [1] = assay: Example 116: mouse EPO mRNA in mannitol multi-dose, serum EPO (Table 186); assay type: in vivo, mice; conditions: mouse EPO mRNA in 5% isotonic Mannitol, IM 2.5 mg/kg per dose
Procedure: Serum was collected from the mice at 24 hours post the second, fourth, sixth and eighth doses.

C57BL/6 [2] = assay: Example 115: human EPO mRNA electroporation multi-dose, serum EPO (Table 185); assay type: in vivo, mice; conditions: human EPO mRNA in PBS, IM 0.2 mg/kg per dose with EP
Procedure: Serum was collected from the mice at 24 hours post the first, second, third and fourth doses.

[3] = serum 24 hours post fourth dose
[4] = serum 24 hours post second dose

For “Luciferase: luciferase mRNA, SEQ ID NO: 14, Cap1, fully modified with 5-methylcytosine and pseudouridine”, the “Mean weight Gain” value (Sprague-Dawley rats; 100 ug) was 16.875 g, the “Weight Gain” value (Sprague-Dawley rats; 100 ug) was 6.5% and the ALP (Sprague-Dawley rats; 100 ug) was 144.4 IU/L. The ALT (Sprague-Dawley rats; 100 ug) was 60.8 IU/L, the AST (Sprague-Dawley rats; 100 ug) was 198.3 IU/L and the Albumin (Sprague-Dawley rats; 100 ug) was 3.3 g/dL. The “Basophils (BASO %)” value (Sprague-Dawley rats; 100 ug) was 0.4%, the Bicarbonate (Sprague-Dawley rats; 100 ug) was 19.9 mEg/L and the CPK (Sprague-Dawley rats; 100 ug) was 488.1 IU/L. The Calcium (Sprague-Dawley rats; 100 ug) was 9.8 mg/dL, the Chloride (Sprague-Dawley rats; 100 ug) was 101.0 mEg/L and the “Eosinophils (EOS %)” value (Sprague-Dawley rats; 100 ug) was 1.3%. For the same molecule, the Globulin (Sprague-Dawley rats; 100 ug) was 2.5 g/dL, the HCT (Sprague-Dawley rats; 100 ug) was 44.1% and the HGB (Sprague-Dawley rats; 100 ug) was 14.7 g/dL. For the same molecule, the “Lymphocytes (LYM %)” value (Sprague-Dawley rats; 100 ug) was 85.9%, the MCH (Sprague-Dawley rats; 100 ug) was 19.5 pg and the MCV (Sprague-Dawley rats; 100 ug) was 58.7 fL. For the same molecule, the “Monocytes (MON %)” value (Sprague-Dawley rats; 100 ug) was 2.0%, the “Neutrophil (NEU-SEG %)” value (Sprague-Dawley rats; 100 ug) was 10.6% and the Phosphorus (Sprague-Dawley rats; 100 ug) was 8.3 mg/dL. For the same molecule, the Potassium (Sprague-Dawley rats; 100 ug) was 4.7 mEg/L, the RBC (Sprague-Dawley rats; 100 ug) was 7.5 Million/uL and the Sodium (Sprague-Dawley rats; 100 ug) was 139.6 mEg/L. For the same molecule, the “Total Protein” value (Sprague-Dawley rats; 100 ug) was 5.8 g/dL, the WBC (Sprague-Dawley rats; 100 ug) was 14 Thous./uL and the “Mean weight Gain” value (Sprague-Dawley rats; 300 ug) was 22.125 g. For the same molecule, the “Weight Gain” value (Sprague-Dawley rats; 300 ug) was 8.3%, the ALP (Sprague-Dawley rats; 300 ug) was 169.5 IU/L and the ALT (Sprague-Dawley rats; 300 ug) was 49.3 IU/L. The AST (Sprague-Dawley rats; 300 ug) was 200.3 IU/L, the Albumin (Sprague-Dawley rats; 300 ug) was 3.2 g/dL and the “Basophils (BASO %)” value (Sprague-Dawley rats; 300 ug) was 0.4%. It also gave a Bicarbonate (Sprague-Dawley rats; 300 ug) of 23.3 mEg/L, a CPK (Sprague-Dawley rats; 300 ug) of 968.3 IU/L and a Calcium (Sprague-Dawley rats; 300 ug) of 9.8 mg/dL. For the same molecule, the Chloride (Sprague-Dawley rats; 300 ug) was 100.5 mEg/L, the “Eosinophils (EOS %)” value (Sprague-Dawley rats; 300 ug) was 1.0% and the Globulin (Sprague-Dawley rats; 300 ug) was 2.4 g/dL. For the same molecule, the HCT (Sprague-Dawley rats; 300 ug) was 43.5%, the HGB (Sprague-Dawley rats; 300 ug) was 14.5 g/dL and the “Lymphocytes (LYM %)” value (Sprague-Dawley rats; 300 ug) was 83.6%. It also gave an MCH (Sprague-Dawley rats; 300 ug) of 19.8 pg, an MCHC (Sprague-Dawley rats; 300 ug) of 33.3 g/dL and an MCV (Sprague-Dawley rats; 300 ug) of 59.6 fL. The “Monocytes (MON %)” value (Sprague-Dawley rats; 300 ug) was 2.8%, the “Neutrophil (NEU-SEG %)” value (Sprague-Dawley rats; 300 ug) was 12.0% and the Phosphorus (Sprague-Dawley rats; 300 ug) was 8.2 mg/dL. For the same molecule, the Potassium (Sprague-Dawley rats; 300 ug) was 4.4 mEg/L, the RBC (Sprague-Dawley rats; 300 ug) was 7.3 Million/uL and the Sodium (Sprague-Dawley rats; 300 ug) was 139.6 mEg/L. For the same molecule, the “Total Protein” value (Sprague-Dawley rats; 300 ug) was 5.6 g/dL, the WBC (Sprague-Dawley rats; 300 ug) was 10.2 Thous./uL and the “Mean weight Gain” value (Sprague-Dawley rats; 1000 ug) was 19 g. For the same molecule, the “Weight Gain” value (Sprague-Dawley rats; 1000 ug) was 6.95%, the ALP (Sprague-Dawley rats; 1000 ug) was 150.5 IU/L and the ALT (Sprague-Dawley rats; 1000 ug) was 51.5 IU/L. For the same molecule, the AST (Sprague-Dawley rats; 1000 ug) was 189.8 IU/L, the Albumin (Sprague-Dawley rats; 1000 ug) was 3.2 g/dL and the Bicarbonate (Sprague-Dawley rats; 1000 ug) was 22.5 mEg/L. The CPK (Sprague-Dawley rats; 1000 ug) was 744 IU/L, the Calcium (Sprague-Dawley rats; 1000 ug) was 10.6 mg/dL and the Chloride (Sprague-Dawley rats; 1000 ug) was 101.0 mEg/L. For the same molecule, the “Eosinophils (EOS %)” value (Sprague-Dawley rats; 1000 ug) was 1.5%, the Globulin (Sprague-Dawley rats; 1000 ug) was 2.7 g/dL and the HCT (Sprague-Dawley rats; 1000 ug) was 42.5%. For the same molecule, the HGB (Sprague-Dawley rats; 1000 ug) was 14.2 g/dL, the “Lymphocytes (LYM %)” value (Sprague-Dawley rats; 1000 ug) was 83.0% and the MCH (Sprague-Dawley rats; 1000 ug) was 19.55 pg. The MCHC (Sprague-Dawley rats; 1000 ug) was 33.3 g/dL, the MCV (Sprague-Dawley rats; 1000 ug) was 58.8 fL and the “Monocytes (MON %)” value (Sprague-Dawley rats; 1000 ug) was 2.3%. For the same molecule, the “Neutrophil (NEU-SEG %)” value (Sprague-Dawley rats; 1000 ug) was 12.8%, the Phosphorus (Sprague-Dawley rats; 1000 ug) was 9.1 mg/dL and the Potassium (Sprague-Dawley rats; 1000 ug) was 5.2 mEg/L. For the same molecule, the RBC (Sprague-Dawley rats; 1000 ug) was 7.2 Million/uL, the Sodium (Sprague-Dawley rats; 1000 ug) was 138.8 mEg/L and the “Total Protein” value (Sprague-Dawley rats; 1000 ug) was 5.9 g/dL. For the same molecule, the WBC (Sprague-Dawley rats; 1000 ug) was 10.7 Thous./uL, the “Mean weight Gain” value (Sprague-Dawley rats; 3 × 1000 ug) was 20.375 g and the “Weight Gain” value (Sprague-Dawley rats; 3 × 1000 ug) was 7.7%. It also gave an ALP (Sprague-Dawley rats; 3 × 1000 ug) of 152.0 IU/L, an ALT (Sprague-Dawley rats; 3 × 1000 ug) of 45.9 IU/L and an Albumin (Sprague-Dawley rats; 3 × 1000 ug) of 3.4 g/dL. For the same molecule, the “Basophils (BASO %)” value (Sprague-Dawley rats; 3 × 1000 ug) was 0.1%, the Bicarbonate (Sprague-Dawley rats; 3 × 1000 ug) was 22.6 mEg/L and the CPK (Sprague-Dawley rats; 3 × 1000 ug) was 481.1 IU/L. The Calcium (Sprague-Dawley rats; 3 × 1000 ug) was 10.2 mg/dL, the Chloride (Sprague-Dawley rats; 3 × 1000 ug) was 100.4 mEg/L and the “Eosinophils (EOS %)” value (Sprague-Dawley rats; 3 × 1000 ug) was 0.9%. For the same molecule, the Globulin (Sprague-Dawley rats; 3 × 1000 ug) was 2.6 g/dL, the HCT (Sprague-Dawley rats; 3 × 1000 ug) was 43.5% and the HGB (Sprague-Dawley rats; 3 × 1000 ug) was 14.4 g/dL. For the same molecule, the “Lymphocytes (LYM %)” value (Sprague-Dawley rats; 3 × 1000 ug) was 85.5%, the MCH (Sprague-Dawley rats; 3 × 1000 ug) was 20.0 pg and the MCHC (Sprague-Dawley rats; 3 × 1000 ug) was 33.1 g/dL. The MCV (Sprague-Dawley rats; 3 × 1000 ug) was 60.6 fL, the “Monocytes (MON %)” value (Sprague-Dawley rats; 3 × 1000 ug) was 2.0% and the “Neutrophil (NEU-SEG %)” value (Sprague-Dawley rats; 3 × 1000 ug) was 11.6%. The Phosphorus (Sprague-Dawley rats; 3 × 1000 ug) was 8.11 mg/dL, the Potassium (Sprague-Dawley rats; 3 × 1000 ug) was 4.6 mEg/L and the RBC (Sprague-Dawley rats; 3 × 1000 ug) was 7.2 Million/uL. The Sodium (Sprague-Dawley rats; 3 × 1000 ug) was 138.8 mEg/L, the “Total Protein” value (Sprague-Dawley rats; 3 × 1000 ug) was 6.0 g/dL and the WBC (Sprague-Dawley rats; 3 × 1000 ug) was 10.9 Thous./uL. For the same molecule, the “adverse effects of high doses” value (Sprague-Dawley rats; 7 days) was “do not result in adverse effects”, the “blood count and clotting factors” value (Sprague-Dawley rats; 7 days) was “no change in blood count or blood clotting factors” and the electrolytes (Sprague-Dawley rats; 7 days) was “no change in electrolytes”. For the same molecule, the “liver enzyme and liver protein production” value (Sprague-Dawley rats; 7 days) was “no change seen in liver enzyme or liver protein production”, the “weight gain and behaviour” value (Sprague-Dawley rats; 7 days) was “All animals continued to gain weight and behave normally” and the white blood cells (Sprague-Dawley rats; 7 days) was “no increase in white blood cells”. The “dose that appears to be safe” value (Sprague-Dawley rats; rat, in vivo) was 30 times the effective dose and the “histopathology at the site of injection” value (Sprague-Dawley rats; rat, in vivo) was “only minimal inflammation at the site of injection”.

B1: EPO: modified mRNA encoding human erythropoietin, SEQ ID NO: 7, Cap1, fully modified with 5-methylcytosine and pseudouridine; LNP NPA-060-1 in Examples 17-22 (nucleic acid)
chain: GGGAAAUAAGAGAGAAAAGAAGAGUAAGAAGAAAUAUAAGAGCCACCAUGGGAGUGCACGAGUGUCCCGCGUGGUUGUGGUUGCUGCUGUCGCUCUUGAGCCUCCCACUGGGACUGCCUGUGCUGGGGGCACCACCCAGAUUGAUCUGCGACUCACGGGUACUUGAGAGGUACCUUCUUGAAGCCAAAGAAGCCGAAAACAUCACAACCGGAUGCGCCGAGCACUGCUCCCUCAAUGAGAACAUUACUGUACCGGAUACAAAGGUCAAUUUCUAUGCAUGGAAGAGAAUGGAAGUAGGACAGCAGGCCGUCGAAGUGUGGCAGGGGCUCGCGCUUUUGUCGGAGGCGGUGUUGCGGGGUCAGGCCCUCCUCGUCAACUCAUCACAGCCGUGGGAGCCCCUCCAACUUCAUGUCGAUAAAGCGGUGUCGGGGCUCCGCAGCUUGACGACGUUGCUUCGGGCUCUGGGCGCACAAAAGGAGGCUAUUUCGCCGCCUGACGCGGCCUCCGCGGCACCCCUCCGAACGAUCACCGCGGACACGUUUAGGAAGCUUUUUAGAGUGUACAGCAAUUUCCUCCGCGGAAAGCUGAAAUUGUAUACUGGUGAAGCGUGUAGGACAGGGGAUCGCUGAUAAGCUGCCUUCUGCGGGGCUUGCCUUCUGGCCAUGCCCUUCUUCUCUCCCUUGCACCUGUACCUCUUGGUCUUUGAAUAAAGCCUGAGUAGGAAG
modifications: Cap1, 5-methylcytosine, pseudouridine
With B1 the “Eighth Dose EPO” value (C57BL/6 [1]; serum 24 hours post eighth dose) was 239.3 pg/mL, the “Fourth Dose EPO” value (C57BL/6 [1]; [3]) was 483.4 pg/mL and the “Second Dose EPO” value (C57BL/6 [1]; [4]) was 334.7 pg/mL. The “Sixth Dose EPO” value (C57BL/6 [1]; serum 24 hours post sixth dose) was 328.9 pg/mL, the “First Dose EPO” value (C57BL/6 [2]; serum 24 hours post first dose) was 9.5 pg/mL and the “Fourth Dose EPO” value (C57BL/6 [2]; [3]) was 139.9 pg/mL. The “Second Dose EPO” value (C57BL/6 [2]; [4]) was 27.9 pg/mL and the “Third Dose EPO” value (C57BL/6 [2]; serum 24 hours post third dose) was 284.5 pg/mL.
